Patent US20190030053A1, “COMPOSITION FOR INCREASING EXPRESSION OF PGC-1alpha” (BENEBIOSIS CO., LTD., priority 2016, published 2019)

Experiments:
[1] = tested on: mouse models with temporary and permanent middle cerebral artery (MCA) occlusion; assay: Ischemic volume (TTC) in stroke models with middle cerebral artery occlusion; type: in vivo; conditions: intraperitoneal
Text: In order to investigate the changes in ischemic volume and modified limb placing test (MLPT) score by treatment with SL (3′-SL & 6′-SL) compositions in stroke models, 4-week-old mice were purchased from Central Lab Animal (Korea). Water was freely accessible, and a commercially available pellet feed (Dooyeul Biotech, Korea) was given for one week. Stroke models involving temporary and permanent middle cerebral artery (MCA) occlusion and intracerebral hemorrhage (ICH) were fabricated using 6-week-old male Sprague-Dawley rats (weight, average 185.3±15.8 g) and male BALB/c mice weight, average 24.6±3.8 g). For the comparison of SL administration effects, the mice, one hour after stroke induction, were randomly grouped into three different intraperitoneal administration groups (8 animals per group, 24 animals in total) below, and then intraperitoneally administered: • Control group: Lysis buffer control group medium intraperitoneal administration group (8 animals) • 3′-SL treatment: 3′-SL lysis buffer medium intraperitoneal administration group (8 animals) • 6′-SL treatment: 6′-SL lysis buffer medium intraperitoneal administration group (8 animals)
Local cerebral infarction mouse models were used as additional cerebral infarction models, and in these models, SL (3′-SL & 6′-SL) was intraperitoneally administered 3 hours after cerebral infarction introduction: • Control group: Lysis buffer control group medium intraperitoneal administration group (8 animals) • 3′-SL treatment: 3′-SL lysis buffer medium intraperitoneal administration group (8 animals) • 6′-SL treatment: 6′-SL lysis buffer medium intraperitoneal administration group (8 animals)
The ischemic volume measurement was conducted by measuring the volume of the ischemic area (infarct and boundary region thereof) using […] (TTC), 24 hours after ischemic induction, as follows. After brain extraction, the frontal tip was cut into 1 mm thickness, and immersed in 2% TCC solution. The stained slices were then fixed with PBS-4% paraformaldehyde, and the ischemic site and hemispherical region of each slice were measured using an image analysis system. The values due to brain edema were corrected as follows: corrected ischemic volume value: measured ischemic area×1−{[(ipsilateral hemisphere area-contralateral hemisphere area)/contralateral hemisphere]}. The ischemic volume was expressed as a percentage of the total hemispherical volume.

[2] = tested on: telomerase; assay: Telomerase activity (TRAP) in vitro, MASMs of aging stimulation models; type: cell-based, mouse; conditions: MASMs of aging stimulation model control group, cultured 1 day with SL
Experimental: In FIGS. 18a and 18b, the telomerase activity was measured using TRAP protocol (Wright et al., 1995). In summary, cell pellets were lysed in CHAPS lysis solvent (containing ribnuclease inhibitor), followed by incubation at 4° C. for 30 minutes. Cell extracts ([…]) were TRAPeze reaction mix (telomerase substrate (TS) primer, fluorescent-labeled RP (reverse) primer, control standard template, and sulforhodamine-labeled standard K2 primer). The TS primer was elongated at 30° C. for 30 minutes, and then PCR was performed. The fluorescence of the thus obtained TRAP product was measured using a fluorescent plate reader to quantify telomerase activity. Relative telomerase activity was normalized by the ratio of native […] to sulforhodamine (internal control standard), expressed as a percentage. Fluorescein (M0250) was purchased from Marker Gene Technologies, Inc. H2-dichlorofluorescin diacetate (DCFDA) was purchased from Molecular Probes. MitoSOX™ Red, MitoTracker Green FM, and MitoTracker® Orange CMTMRos (MTO) were purchased from Invitrogen. 10,000× SYBR® Gold dye was purchased from Molecular Probes, Inc. Nuclear/Cytosol fractionation kit (K266-100) was purchased from BioVision. TRAPeze® XL telomerase detection kit (S7707) was purchased from MILLIPORE. Telomere PNA FISH Kit/Cy3 (K5326) was purchased from Dako. […]

Structure (SMILES) | ischemic neuronal damage protective effects ([1]; MCA occlusion models) | telomerase activity in MASMs (in vitro) [2] | reduction of ischemic volume ([1]; all models, 24 hours after ischemic induction) | reduction of ischemic volume ([1]; local cerebellar permanent ischemia models) [%] | reduction of ischemic volume ([1]; local cerebellar temporal ischemia models) [%] | reduction of ischemic volume ([1]; local cerebral permanent occlusion models) [%]
CC(=O)N[C@H]1[C@H]([C@H](O)[C@H](O)CO)O[C@@](O[C@H]2[C@@H](O)[C@@H](CO)O[C@@H](O[C@H]3[C@H](O)[C@@H](O)C(O)O[C@@H]3CO)[C@@H]2O)(C(=O)O)C[C@@H]1O (stereo partly drawn) [3′-SL, α-NeuNAc-(2→3)-β-D-Gal-(1→4)-D-Glc] | relatively low compared with 6′-SL | increased telomerase activity | – | – | – | –
CC(=O)N[C@H]1[C@H]([C@H](O)[C@H](O)CO)O[C@@](OC[C@H]2O[C@@H](O[C@H]3[C@H](O)[C@@H](O)[C@H](O)O[C@@H]3CO)[C@H](O)[C@@H](O)[C@H]2O)(C(=O)O)C[C@@H]1O [6′-SL, α-NeuNAc-(2→6)-β-D-Gal-(1→4)-D-Glc] | – | increased telomerase activity | about 50% | 50 | 60 | 40
